Laboratory results as given in patent publication US7423025B2 (MUSC Foundation for Research Development, priority 2005, dated 2008).
Entries after “also recorded” stand apart in the source; their conditions may differ.

Columns and labels:
[1] = tested on: Langendorff perfused mouse heart; assay: Ischemia/reperfusion model on Langendorff perfused (isolated) mouse heart, cardioprotective activity; conditions: for maximum ischemic contracture, in words / time until onset of ischemic contracture, in words: 5 min pretreatment before 40 min ischemia; for cardiac tissue necrosis / infarction area by TTC staining, in words: 5 min pretreatment before ischemia-reperfusion; for infarction area (TTC staining, percentage of area) / maximum ischemic contracture: 5 min pretreatment; for infarction area (TTC staining, percentage of area) / maximum ischemic contracture / onset of contracture (time until onset of ischemic contracture): 40 min global ischemia; for infarction area (TTC staining, percentage of area): 60 min reperfusion, negative control 58.3±5.8%; for infarction area (TTC staining, percentage of area) / maximum ischemic contracture / onset of contracture (time until onset of ischemic contracture) / functional recovery (% rate pressure product): Mean±SEM; for maximum ischemic contracture: negative control 105.0±6.8 cmH2O; for onset of contracture (time until onset of ischemic contracture): negative control 10.5±1.0 min; for functional recovery (% rate pressure product): after 40 min ischemia and reperfusion, negative control 21.3±1.4; for functional recovery of contractility (% RPP), in words: upon reperfusion after 40 min ischemia
L6 myoblasts = assay: Azide-induced Pasteur effect in L6 myoblasts measured by microphysiometer; assay type: cell-based; conditions: sodium azide 5 mM, 10 min exposure, normalized to first azide exposure 30 min prior
Method: FIG. 5 is a graph showing increase of the azide-induced Pasteur effect on L6 myoblasts by L-3′-AM-MECA (2) and L-3′-ADMdA (1). Percent changes in extracellular acidification rates upon treatment of L6 cells with sodium azide (5 mM) are shown. Responses are the average for 10 min exposure and these are normalized to the increase measured for the first exposure of the same cells to azide 30 min prior. Typically the second exposure causes a diminished Pasteur effect (see control). Error bars are SEM for n=3-5. * Statistically different from negative control (IR).
The ability of increasing the azide-induced Pasteur in L6 myoblasts was measured by microphysiometer.

[2] = biological target: S-adenosyl-L-homocysteine hydrolase (Homo sapiens, UniProt P23526); conditions: cited from earlier work
[3] = tested on: mammalian nucleoside transporters; conditions: cited from earlier work

Sequence of S-adenosyl-L-homocysteine hydrolase (P23526 whole entry, species assumed): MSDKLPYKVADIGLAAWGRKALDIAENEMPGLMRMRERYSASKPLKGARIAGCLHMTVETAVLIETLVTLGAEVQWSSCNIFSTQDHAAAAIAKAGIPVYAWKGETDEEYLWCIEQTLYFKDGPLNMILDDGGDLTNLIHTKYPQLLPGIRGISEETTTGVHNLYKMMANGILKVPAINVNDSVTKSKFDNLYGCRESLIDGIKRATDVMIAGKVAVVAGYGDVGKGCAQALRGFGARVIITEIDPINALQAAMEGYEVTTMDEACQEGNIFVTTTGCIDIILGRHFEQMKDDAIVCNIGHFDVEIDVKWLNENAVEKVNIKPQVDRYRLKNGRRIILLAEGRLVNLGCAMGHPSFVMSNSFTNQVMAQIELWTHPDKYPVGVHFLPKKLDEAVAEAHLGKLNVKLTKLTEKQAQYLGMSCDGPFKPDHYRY

SMILES: Nc1ncnc2c1ncn2[C@@H]1O[C@H](CO)[C@@H](O)[C@H]1O [adenosine, reference compound]
- maximum ischemic contracture, in words [1]: lower maximal
- time until onset of ischemic contracture, in words [1]: delayed time until onset of ischemic contracture
- cardiac tissue necrosis / infarction area by TTC staining, in words [1]: significantly less evidence of necrosis
- infarction area (TTC staining, percentage of area) [1]: 24.6±5.8%
- maximum ischemic contracture [1]: 74.1±15.6 cmH2O
- onset of contracture (time until onset of ischemic contracture) [1]: 13.6 ± 0.6 min
- functional recovery (% rate pressure product) [1]: 30.7±3.4 cmH2O/s % rate pressure product
- functional recovery of contractility (% RPP), in words [1]: significantly increased recovery of function

SMILES: CNC(=O)[C@@H]1O[C@H](n2cnc3c(NC)ncnc32)[C@@H](O)[C@H]1N [Compound 2, L-3′-amino-3′-deoxy-N^6-methyladenosine-5′-N-methyluronamide]
- maximum ischemic contracture, in words [1]: significant decrease of maximum ischemic contracture; also recorded: significantly decreased maximum ischemic contracture
- time until onset of ischemic contracture, in words [1]: does not show a significant effect; also recorded: did not significantly alter this parameter
- cardiac tissue necrosis / infarction area by TTC staining, in words [1]: protective effect that is comparable or higher than adenosine; also recorded: showed decrease of cardiac tissue necrosis
- infarction area (TTC staining, percentage of area) [1]: 31.8±5.4%
- maximum ischemic contracture [1]: 87.6±6.3 cmH2O
- functional recovery of contractility (% RPP), in words [1]: did not show significant functional recovery
- functional recovery of contractility (% RPP), in words ([1]; listed as L-3′-AM-MECA): did not show any significant effect
- increase of azide-induced Pasteur effect (extracellular acidification rate) (L6 myoblasts): 128%

SMILES: CNC(=O)[C@H]1O[C@@H](n2cnc3c(N)ncnc32)[C@H](O)[C@@H]1O [MECA, reference compound]
- increase of azide-induced Pasteur effect (extracellular acidification rate) (L6 myoblasts): 115%

SMILES: OC[C@H]1O[C@@H](n2cnc3c(NC4CCCC4)nc(Cl)nc32)[C@H](O)[C@@H]1O [CCPA, reference compound]
- increase of azide-induced Pasteur effect (extracellular acidification rate) (L6 myoblasts): 19%

SMILES: Nc1ncnc2c1ncn2[C@H]1O[C@@H](CO)[C@H](O)[C@@H]1O [L-adenosine]
- activity on animal enzymes such as S-adenosyl-L-homocysteine hydrolase [2]: inactive
- interaction with mammalian nucleoside transporters [3]: does not interact

SMILES: CN(C)c1ncnc2c1ncn2[C@H]1O[C@@H](CO)[C@H](N)[C@@H]1O [Compound 1, L-3′-amino-3′-deoxy-N^6-dimethyladenosine]
- maximum ischemic contracture, in words [1]: significant decrease of maximum ischemic contracture; also recorded: significantly decreased maximum ischemic contracture
- time until onset of ischemic contracture, in words [1]: increasing the time until onset of ischemic contracture
- cardiac tissue necrosis / infarction area by TTC staining, in words [1]: protective effect that is comparable or higher than adenosine; also recorded: showed decrease of cardiac tissue necrosis
- infarction area (TTC staining, percentage of area) [1]: 39.8±5.7%
- maximum ischemic contracture [1]: 74.3±7.8 cmH2O
- onset of contracture (time until onset of ischemic contracture) [1]: 14.5 ± 0.9 min
- functional recovery (% rate pressure product) [1]: 32.2±3.7 cmH2O/s % rate pressure product
- cardiac standstill during treatment ([1]; during 5 min perfusion before ischemia, adenosine at 50 μM): neither showed cardiac standstill during treatment; also recorded: neither (1) nor (2) induce cardiac standstill
- functional recovery of contractility (% RPP), in words [1]: significant functional recovery of contractility
- increase of azide-induced Pasteur effect (extracellular acidification rate) (L6 myoblasts): 136%
